From patent US20190203230A1, “POROUS MEMBRANE-BASED MACROMOLECULE DELIVERY SYSTEM” (NOVARTIS AG, priority 2016, published 2019)

Test system: HbF
Assay: Erythroid differentiation and HbF detection by flow cytometry
Format: cell-based, human
Settings: erythroid differentiation, flow cytometry (days 7 and 14 collected; day of the values not stated); UNC0638 at 0.5 μM
Method: The present teachings (herein also referred to as TRIAMF for brevity) were applied for the delivery of RNPs consisting of guides targeting the HBG […] to recapitulate the genotype of a form of hereditary persistent fetal hemoglobin found in many patients. […] Through a combination of next generation sequencing (NGS) and quantitative PCR (qPCR), editing efficiency at the target site was determined to be a total average of 63% total editing.
FIG. 20 depicts percentage of HbF cells at D7 and D14 of erythroid differentiation protocol of WT, mock treated, HBG edited, and UNC0638 (Blood. 2015, July 30:126(5):665-72) positive control treated cells. Cells were analyzed by fixation and staining of CD235a,CD71, and HbF. The cells were collected on days 7 and 14 and stained with CD235a, CD71, and fetal hemoglobin, and analyzed with flow cytometry. […]

## COc1cc2c(NC3CCN(C(C)C)CC3)nc(C3CCCCC3)nc2cc1OCCCN1CCCC1 [UNC0638]
  cells expressed HbF: 92%
